Patent US4696925A, “Cholecystokinin antagonist compounds” (Merck & Co., Inc., priority 1985, dated 1987)

Target: T1, Pancreatic CCK (Rattus norvegicus, UniProt P30551)
T1 construct: from tissue; host or cells: pancreas (rat, inferred from the cited method)
T1 sequence (P30551 1-444): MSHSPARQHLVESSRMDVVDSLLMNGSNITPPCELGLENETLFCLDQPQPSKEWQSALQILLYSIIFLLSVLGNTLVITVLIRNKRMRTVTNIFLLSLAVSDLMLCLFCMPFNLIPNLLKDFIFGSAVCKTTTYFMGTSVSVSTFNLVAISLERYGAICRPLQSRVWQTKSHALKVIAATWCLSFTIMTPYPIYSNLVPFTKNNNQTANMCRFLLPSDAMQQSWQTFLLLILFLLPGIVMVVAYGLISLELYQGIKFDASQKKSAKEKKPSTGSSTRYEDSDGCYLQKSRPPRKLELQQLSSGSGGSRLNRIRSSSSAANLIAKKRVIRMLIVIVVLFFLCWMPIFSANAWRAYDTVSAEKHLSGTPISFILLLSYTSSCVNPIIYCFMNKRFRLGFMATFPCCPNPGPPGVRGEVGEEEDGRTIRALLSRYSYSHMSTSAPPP
Experiment: Pancreatic CCK inhibition (assay of European Patent Application No. 0,116,150)
Assay type: binding
Source text: The following formula and tabulation further identify the above listed compounds. Pancreatic CCK inhibition data is also provided; the assay used is that disclosed in said European Patent Application No. 0,116,150.
The following table contains information Identifying other compounds of the present invention and pancrease CCK inhibition data (European Patent Application Assay).

[1] = pancreas CCK inhibition, European Patent Application assay, leucine analogs
[2] = pancreatic CCK inhibition, assay of EP 0,116,150

SMILES	IC50 [1] [µM]	IC50 [2] [µM]
CCSCCC1NC2N(C1=O)c1ccccc1C2(O)CC1NC(=O)c2ccccc2-n2c1nc1ccccc1c2=O (stereo not drawn) [Compound 721]	1.5	
O=C1NC(CC2(O)c3ccccc3N3C(=O)C(C4CCCCC4)NC32)c2nc3ccccc3c(=O)n2-c2ccccc21 (stereo not drawn) [Compound 068]	0.6	
O=C1c2cc(F)ccc2-n2c(nc3ccc(F)cc3c2=O)C2CC3(O)c4cc(F)ccc4NC3N12 (stereo not drawn) [Compound 857]		2.52
CSCCC1NC2N(C1=O)c1ccccc1C2(O)CC1NC(=O)c2ccccc2-n2c1nc1ccccc1c2=O (stereo not drawn) [Compound 655]	4.1	
CC(C)C[C@@H]1NC2N(C1=O)c1ccccc1C2(O)C[C@@H]1NC(=O)c2ccc(F)cc2-n2c1nc1ccccc1c2=O (stereo partly drawn) [Compound 845]		1.45
CCCCC1NC2N(C1=O)c1ccccc1C2(O)CC1NC(=O)c2ccccc2-n2c1nc1ccccc1c2=O (stereo not drawn) [Compound 656]	2.5	
O=C1NC(Cc2c[nH]c3ncccc23)c2nc3ccccc3c(=O)n2-c2ccccc21 (stereo not drawn) [Compound 841]		29.9
O=C1NC(CC2(O)c3ccccc3N3C(=O)C(c4ccccc4)NC32)c2nc3ccccc3c(=O)n2-c2ccccc21 (stereo not drawn) [Compound 500]	20	
O=C1c2ccccc2-n2c(nc3ccccc3c2=O)C2CC3(O)c4cc(F)ccc4NC3N12 (stereo not drawn) [Compound 856]		30
CCCC1NC2N(C1=O)c1ccccc1C2(O)CC1NC(=O)c2ccccc2-n2c1nc1ccccc1c2=O (stereo not drawn) [Compound 539]	11.9	

The next lines start with results.

IC50 [1] [µM]	SMILES	IC50 [2] [µM]
3.3	C=C(C)CC1NC2N(C1=O)c1ccccc1C2(O)CC1NC(=O)c2ccccc2-n2c1nc1ccccc1c2=O (stereo not drawn) [Compound 538]	
2.2	O=C1NC(CC2(O)c3ccccc3N3C(=O)C(C4CCCC4)NC32)c2nc3ccccc3c(=O)n2-c2ccccc21 (stereo not drawn) [Compound 931]	
5.9	CCC(C)C1NC2N(C1=O)c1ccccc1C2(O)CC1NC(=O)c2ccccc2-n2c1nc1ccccc1c2=O (stereo not drawn) [Compound 654]	
7.6	C=CCC1NC2N(C1=O)c1ccccc1C2(O)CC1NC(=O)c2ccccc2-n2c1nc1ccccc1c2=O (stereo not drawn) [Compound 540]	
1	CC(CC1NC2N(C1=O)c1ccccc1C2(O)CC1NC(=O)c2ccccc2-n2c1nc1ccccc1c2=O)C(F)(F)F (stereo not drawn) [Compound 328]	
